Results reported in US7569574B2, “Purine derivatives, the preparation thereof and their use as pharmaceutical compositions” (Boehringer Ingelheim Pharma GmbH & Co. KG, priority 2002, dated 2009).
Structures can show the parent of a compound that is named as a salt.

Biological target: T1, DPP-IV (Homo sapiens, UniProt P27487)
T1 construct: an extract of human colon carcinoma cell line Caco-2 is used as the DPP IV source; endogenous in cells; host or cells: Caco-2 (human colon carcinoma), differentiated to induce DPP-IV expression; Nonidet-P40 solubilised extract
T1 sequence (P27487 whole entry): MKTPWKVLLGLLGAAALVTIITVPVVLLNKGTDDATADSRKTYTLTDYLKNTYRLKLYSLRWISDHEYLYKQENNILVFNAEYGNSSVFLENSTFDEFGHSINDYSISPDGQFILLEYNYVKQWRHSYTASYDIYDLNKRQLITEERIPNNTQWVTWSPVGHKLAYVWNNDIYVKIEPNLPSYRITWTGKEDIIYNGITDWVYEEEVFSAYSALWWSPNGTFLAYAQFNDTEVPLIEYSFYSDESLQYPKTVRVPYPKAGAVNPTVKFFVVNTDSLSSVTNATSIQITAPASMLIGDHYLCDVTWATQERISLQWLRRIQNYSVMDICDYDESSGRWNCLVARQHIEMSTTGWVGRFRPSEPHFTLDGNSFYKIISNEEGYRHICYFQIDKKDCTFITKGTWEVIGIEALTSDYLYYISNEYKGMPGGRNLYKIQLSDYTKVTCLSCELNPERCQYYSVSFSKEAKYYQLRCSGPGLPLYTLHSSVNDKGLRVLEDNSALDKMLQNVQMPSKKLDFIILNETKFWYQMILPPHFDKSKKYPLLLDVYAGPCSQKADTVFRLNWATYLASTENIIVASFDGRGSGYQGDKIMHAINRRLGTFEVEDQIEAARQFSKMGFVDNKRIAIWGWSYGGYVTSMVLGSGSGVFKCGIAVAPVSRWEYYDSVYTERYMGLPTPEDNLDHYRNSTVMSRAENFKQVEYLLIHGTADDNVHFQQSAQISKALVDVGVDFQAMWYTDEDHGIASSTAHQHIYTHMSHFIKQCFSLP
Test: DPP-IV assay with Caco-2 cell extract as DPP IV source, AFC substrate, fluorescence
Assay type: biochemical
Details: extract of human colon carcinoma cell line Caco-2; substrate 100 μM; 60 minutes at ambient temperature; read-out: DPP IV inhibition IC50
Description: The differentiation of the cells in order to induce the DPP-IV expression was carried out as described by Reiher et al. in an article entitled “Increased expression of intestinal cell line Caco-2”, which appeared in Proc. Natl. Acad. Sci. Vol. 90, pages 5757-5761 (1993). The cell extract was obtained from cells solubilised in a buffer (10 mM Tris HCl, 0.15 M NaCl, 0.04 t.i.u. aprotinin, 0.5% Nonidet-P40, pH 8.0) by centrifuging at 35,000 g for 30 minutes at 4° C. (to remove cell debris).
The DPP-IV assay was carried out as follows:
50 μl substrate solution (AFC; AFC is amido-4-trifluoromethylcoumarin), final concentration 100 μM, were placed in black microtitre plates. 20 μl of assay buffer (final concentrations 50 mM Tris HCl pH 7.8, 50 mM NaCl, 1% DMSO) was pipetted in. The reaction was started by adding 30 μl of solubilised Caco-2 protein (final concentration 0.14 μg of protein per well). The test substances to be investigated were typically added prediluted in 20 μl, and the volume of assay buffer was then reduced accordingly. The reaction was carried out at ambient temperature, incubating for 60 minutes. Then the fluorescence was measured in a Victor 1420 Multilabel Counter, the excitation wavelength being 405 nm and the emission wavelength being 535 nm. Blank readings (corresponding to 0% activity) were obtained in mixtures without any Caco-2 protein (volume replaced by assay buffer), control values (corresponding to 100% activity) were obtained in mixtures with no substance added.

Structure (SMILES)	IC50 [µM]
CC(C)Nc1nc2nc(N3CCCC(N)C3)n(Cc3ccccc3)c2c(=O)n1C (stereo not shown) [1(3), 8-(3-amino-piperidin-1-yl)-7-benzyl-2-isopropylamino-1-methyl-1,7-dihydro-purin-6-one trifluoroacetate]	0.11
CNc1nc2nc(N3CCCC(N)C3)n(Cc3ccccc3)c2c(=O)n1C (stereo not shown) [1(4), 8-(3-amino-piperidin-1-yl)-7-benzyl-1-methyl-2-methylamino-1,7-dihydro-purin-6-one trifluoroacetate]	0.058
Cn1c(NC2CCCCC2)nc2nc(N3CCCC(N)C3)n(Cc3ccccc3)c2c1=O (stereo not shown) [1(5), 8-(3-amino-piperidin-1-yl)-7-benzyl-2-cyclohexylamino-1-methyl-1,7-dihydro-purin-6-one trifluoroacetate]	0.134
Cn1c(N2CCCCC2)nc2nc(N3CCCC(N)C3)n(Cc3ccccc3)c2c1=O (stereo not shown) [1(7), 8-(3-amino-piperidin-1-yl)-7-benzyl-1-methyl-2-(piperidin-1-yl)-1,7-dihydro-purin-6-one hydrochloride]	0.434
CN(C)c1nc2nc(N3CCCC(N)C3)n(Cc3ccccc3)c2c(=O)n1C (stereo not shown) [1(8), 8-(3-amino-piperidin-1-yl)-7-benzyl-2-dimethylamino-1-methyl-1,7-dihydro-purin-6-one trifluoroacetate]	0.213
Cn1c(N)nc2nc(N3CCCC(N)C3)n(Cc3ccccc3)c2c1=O (stereo not shown) [1(9), 2-amino-8-(3-amino-piperidin-1-yl)-7-benzyl-1-methyl-1,7-dihydro-purin-6-one trifluoroacetate]	0.061
Cc1nc2nc(N3CCCC(N)C3)n(Cc3ccccc3)c2c(=O)n1C (stereo not shown) [1(11), 8-(3-amino-piperidin-1-yl)-7-benzyl-1-methyl-2-methyl-1,7-dihydro-purin-6-one trifluoroacetate]	0.054
CSc1nc2nc(N3CCCC(N)C3)n(Cc3ccccc3)c2c(=O)[nH]1 (stereo not shown) [1(14), 8-(3-amino-piperidin-1-yl)-7-benzyl-2-methylsulphanyl-1,7-dihydro-purin-6-one hydrochloride]	0.158
NC1CCCN(c2nc3nc(SCc4ccccc4)[nH]c(=O)c3n2Cc2ccccc2)C1 (stereo not shown) [1(15), 8-(3-amino-piperidin-1-yl)-7-benzyl-2-benzylsulphanyl-1,7-dihydro-purin-6-one trifluoroacetate]	0.058
Cn1c(CC(=O)c2ccccc2)nc2nc(N3CCCC(N)C3)n(Cc3ccccc3)c2c1=O (stereo not shown) [1(23), 8-(3-amino-piperidin-1-yl)-7-benzyl-1-methyl-2-(2-oxo-2-phenyl-ethyl)-1,7-dihydro-purin-6-one]	0.157
Cn1c(C#N)nc2nc(N3CCCC(N)C3)n(Cc3ccccc3)c2c1=O (stereo not shown) [1(24), 8-(3-amino-piperidin-1-yl)-7-benzyl-2-cyano-1-methyl-1,7-dihydro-purin-6-one trifluoroacetate]	0.113
CC(C)=CCn1c(N2CCCC(N)C2)nc2nc(C)n(Cc3ccccc3)c(=O)c21 (stereo not shown) [1(25), 8-(3-amino-piperidin-1-yl)-1-benzyl-2-methyl-7-(3-methyl-but-2-en-1-yl)-1,7-dihydro-purin-6-one]	0.275
COc1ccc(Cn2cnc3nc(N4CCCC(N)C4)n(CC=C(C)C)c3c2=O)c2ccccc12 (stereo not shown) [1(28), 8-(3-amino-piperidin-1-yl)-7-(3-methyl-but-2-en-1-yl)-1-[(4-methoxy-naphthalen-1-yl)methyl]-1,7-dihydro-purin-6-one]	0.057
Cn1c(NCc2ccccc2)nc2nc(N3CCCC(N)C3)n(Cc3ccccc3)c2c1=O (stereo not shown) [Example 1, 8-(3-amino-piperidin-1-yl)-7-benzyl-2-benzylamino-1-methyl-1,7-dihydro-purin-6-one]	0.011

The remaining molecules from weak to strong by IC50, led by results:

IC50 [µM]	Structure (SMILES)
0.048	Cn1c(NCC2CCCCC2)nc2nc(N3CCCC(N)C3)n(Cc3ccccc3)c2c1=O (stereo not shown) [1(6), 8-(3-amino-piperidin-1-yl)-7-benzyl-2-cyclohexylmethylamino-1-methyl-1,7-dihydro-purin-6-one trifluoroacetate]
0.048	NC1CCCN(c2nc3ncn(CC(=O)c4ccccc4)c(=O)c3n2Cc2ccccc2)C1 (stereo not shown) [1(22), 8-(3-amino-piperidin-1-yl)-7-benzyl-1-(2-oxo-2-phenyl-ethyl)-1,7-dihydro-purin-6-one trifluoroacetate]
0.042	Cn1c(NCCc2ccccc2)nc2nc(N3CCCC(N)C3)n(Cc3ccccc3)c2c1=O (stereo not shown) [1(2), 8-(3-amino-piperidin-1-yl)-7-benzyl-1-methyl-2-[(2-phenylethyl)amino]-1,7-dihydro-purin-6-one trifluoroacetate]
0.04	CC(C)=CCn1c(N2CCCC(N)C2)nc2nc(C)n(Cc3cccc4ccccc34)c(=O)c21 (stereo not shown) [1(26), 8-(3-amino-piperidin-1-yl)-2-methyl-7-(3-methyl-but-2-en-1-yl)-1-[(naphthalen-1-yl)methyl]-1,7-dihydro-purin-6-one]
0.024	Cn1c(NCc2ccc(F)cc2)nc2nc(N3CCCC(N)C3)n(Cc3ccccc3)c2c1=O (stereo not shown) [1(1), 8-(3-amino-piperidin-1-yl)-7-benzyl-2-(4-fluoro-benzylamino)-1-methyl-1,7-dihydro-purin-6-one trifluoroacetate]
0.019	CC(C)=CCn1c(N2CCCC(N)C2)nc2ncn(Cc3cccc4ccccc34)c(=O)c21 (stereo not shown) [1(27), 8-(3-amino-piperidin-1-yl)-7-(3-methyl-but-2-en-1-yl)-1-[(naphthalen-1-yl)methyl]-1,7-dihydro-purin-6-one]
0.018	CC(C)=CCn1c(N2CCCC(N)C2)nc2nc(CCc3ccccc3)n(C)c(=O)c21 (stereo not shown) [1(12), 8-(3-amino-piperidin-1-yl)-1-methyl-7-(3-methyl-but-2-en-1-yl)-2-(2-phenylethyl)-1,7-dihydro-purin-6-one trifluoroacetate]

Tested on: not listed separately
Test: Tolerability after oral administration to rats
Assay type: in vivo
Details: 30 mg/kg

Structure (SMILES)	toxic side effects or changes in the animals' behaviour
Cn1c(NCc2ccccc2)nc2nc(N3CCCC(N)C3)n(Cc3ccccc3)c2c1=O (stereo not shown) [Example 1, 8-(3-amino-piperidin-1-yl)-7-benzyl-2-benzylamino-1-methyl-1,7-dihydro-purin-6-one]	no toxic side effects or changes in the animals' behaviour could be detected
